Assays:
[1] = Hypotensive activity in spontaneously hypertensive rats; format: in vivo, spontaneously hypertensive rats of the Okamoto strain; conditions: 100 mg/kg by gavage, two doses 24 hours apart, measured at 28 hours after the initial dose; one or two rats
Description: The novel compounds of the present invention are active hypotensive agents and were tested for hypotensive activity by the method of P. S. Chan and D. Poorvin, Clinical and Experimental Hypertension, 1 (6), 817-830 (1979). […] One to 3 rats are used per test compound. A rat is dosed by gavage with a test compound suspended in 2% pre-boiled starch at a concentration of 50 mg/ml, at a dose of 100 mg/kg of body weight or less, with 0.9% sodium chloride loading at a dose of 25 ml/kg of body weight. A second identical dose of the test compound, without sodium chloride loading is given 24 hours later. At 28 hours after the initial dose the mean arterial blood pressure is measured by the method of Chan and Poorvin (see above). The procedure is repeated in a second and third rat when necessary. The results of this test on representative compounds of the present invention which were obtained using one or two rats, at a dose of 100 mg/kg of body weight appear below in Table I.

[2] = Non-conditioned passive avoidance test in rats (antianxiety); format: in vivo, Wistar strain rats; set-up: key: Active: the number of shocks received by the test group is significantly higher than the control group by the Mann-Witney U test; conditions: 25 mg/kg, oral or intraperitoneal
Description: The antianxiety effects of the novel compounds of the present invention have been assessd in a non-conditioned passive avoidance procedure described by J. R. Vogel, B. Beer and D. E. Clody, "A Simple and Reliable Conflict Procedure for Testing Antianxiety Agents", Psychopharmacologia, 21, 1-7 (1971). A conflict situation was induced in rats by a modification of this method.
Groups of 6 naive, Wistar strain rats, weighing 200-240 g each, were deprived of water for 48 hours and food for 24 hours. The test compounds were administered in single or graded, oral or intraperitoneal doses, suspended in a 2% starch vehicle containing 0.5% v/v polyethylene glycol and one drop of Polysorbate 80. Control animals received the vehicle alone. At 30 or 60 minutes each rat was placed in an individual plexiglass chamber. Water was available ad libitum from a tap located in the rear of the chamber. A 0.7 milliampere DC shocking current was established between the stainless steel grid floor and the tap. After 20 licks of non-shocked drinking, a shock was delivered for 2 seconds and then further shocks were delivered on a ratio of one shock for 2 seconds for every 20 licks. This was continued for a total of 3 minutes. The number of shocks taken by each rat during the 3 minute interval was recorded and compared to a control group.

[3] = Passive Avoidance Anoxic Induced Amnesia Test; format: in vivo, Swiss-Webster, middle-aged mice; conditions: 100 mg/kg i.p., 30 minutes prior to training and testing; over saline control
Source text: Another in vivo test associated with decreased neural function in mammals is the Passive Avoidance Anoxic Induced Amnesia Test. This test is used to determine the attenuation of anoxic induced amnesia in mice treated with drug, as compared to saline treated control animals with no drug.
A shock-motivated, single trial, step-through passive avoidance procedure is used. Groups of 25 Swiss-Webster, middle-aged mice (9 months of age) are placed singly in the front chamber of a 2-chamber box and are allowed to voluntarily cross into the rear chamber. As soon as the mouse enters the rear chamber, a guillotine door automatically traps the animal and a mild electric shock (0.4 mA for 4 seconds) is delivered to its feet. Following the foot shock, the mice are initially placed in an anoxic environment (0% oxygen) for 12 seconds, which quickly induces unconsciousness. They are then placed in a hypoxic environment (15% oxygen) for four minutes which prolongs the oxygen deprived state, maintaining unconsciousness. All testing is performed 24 hours later, and in all cases the mice appear fully recovered from the previous anoxic/hypoxic treatment. All test compounds are administered intraperitoneally at a dose of 10-100 mg/kg, 30 minutes prior to training and testing. […]
The latency to enter the rear chamber is recorded for both training and testing. […]

[4] = Hypoxic Survival Test; format: in vivo, Royal Hart mice; conditions: 50 mg/kg i.p., 10% oxygen, 5 minutes
Description: Groups of 20 Royal Hart mice (6 weeks of age) are injected intraperitoneally with 10, 50 or 100 mg/kg of test compound 30 minutes prior to placing them in a hypoxic mixture (10% oxygen in 90% […]) and measuring survival after 5 minutes.
A separate group of 20 mice is injected intraperitoneally with saline solution (0.01 cc/g of body weight) and processed as described above.
Still another group of 20 mice is injected intraperitoneally with 0.125 mg/kg of physostigmine and processed as described above.

Row | SMILES | Mean Arterial Blood Pressure [1] | Result (non-conditioned passive avoidance) [2] | % Improvement [3] | % Survivors [4]
1 | N#Cc1c(N2CCOCC2)nn2c(-c3cccc(C(F)(F)F)c3)ccnc12 [2-(4-Morpholinyl)-7-[3-(trifluoromethyl)phenyl]pyrazolo[1,5-a]pyrimidine-3-carbonitrile] | 142 mm of mercury | Active |  | 
2 | Cc1cc(-c2ccccc2)n2nc(N3CCN(Cc4ccccc4)CC3)c(C#N)c2n1 [5-Methyl-7-phenyl-2-[4-(phenylmethyl)-1-piperazinyl]-pyrazolo[1,5-a]pyrimidine-3-carbonitrile] | 131 mm of mercury | Active |  | 
3 | N#Cc1c(N2CCN(Cc3ccccc3)CC2)nn2c(-c3cccc(C(F)(F)F)c3)ccnc12 [2-[4-(Phenylmethyl)-1-piperazinyl]-7-[3-(trifluoromethyl)phenyl]pyrazolo[1,5-a]pyrimidine-3-carbonitrile] |  |  | 44% | 52%
4 | N#Cc1c(N2CCN(Cc3cccc(Cl)c3)CC2)nn2c(-c3ccccc3)ccnc12 [2-[4-[(3-Chlorophenyl)methyl]-1-piperazinyl]-7-phenylpyrazolo[1,5-a]pyrimidine-3-carbonitrile] |  | Active |  | 
